Measured values as given in the NIST ThermoML archive (doi:10.1021/je0499768).

How the values were obtained:
[1] = Crystal
[2] = Molar enthalpy of transition or fusion; conditions: Crystal
[3] = molar heat capacity at saturation pressure

CCCCCO [pentan-1-ol]
Conditions	Molar enthalpy of transition or fusion [kcal/mol]	Triple point temperature [K]
[1]	–	195.6
[2]	2.512	–

[3]
Conditions	molar heat capacity [J/K/mol]
84.35 K, Crystal	65.89
85.06 K, Crystal	66.25
86.86 K, Crystal	67.27
89.74 K, Crystal	68.87
92.58 K, Crystal	70.39
94.72 K, Crystal	71.43
95.39 K, Crystal	71.74
95.42 K, Crystal	71.88
97.19 K, Crystal	72.64
98.27 K, Crystal	73.33
100.1 K, Crystal	74.14
101.12 K, Crystal	74.67
102.99 K, Crystal	75.73
103.99 K, Crystal	76.36
105.87 K, Crystal	77.16
106.86 K, Crystal	77.84
108.76 K, Crystal	78.64
109.74 K, Crystal	79.23
111.65 K, Crystal	79.96
112.62 K, Crystal	80.53
114.54 K, Crystal	81.27
115.51 K, Crystal	81.81
117.45 K, Crystal	82.55
118.41 K, Crystal	83.11
120.35 K, Crystal	83.59
121.31 K, Crystal	84.26
123.26 K, Crystal	85.21
124.22 K, Crystal	85.78
126.17 K, Crystal	86.52
127.13 K, Crystal	87.05
129.09 K, Crystal	87.81
130.04 K, Crystal	88.35
132 K, Crystal	89.11
132.96 K, Crystal	89.63
134.92 K, Crystal	90.35
135.88 K, Crystal	90.9
137.85 K, Crystal	91.65
138.8 K, Crystal	92.19
140.77 K, Crystal	92.89
141.73 K, Crystal	93.48
143.7 K, Crystal	94.19
144.65 K, Crystal	94.77
146.63 K, Crystal	95.55
147.58 K, Crystal	96.12
149.56 K, Crystal	96.87
150.51 K, Crystal	97.45
152.49 K, Crystal	98.21
153.44 K, Crystal	98.8
155.42 K, Crystal	99.58
156.38 K, Crystal	100.2
158.36 K, Crystal	101.02
159.31 K, Crystal	101.61
161.29 K, Crystal	102.48
162.24 K, Crystal	103.05
164.23 K, Crystal	103.98
165.18 K, Crystal	104.56
167.16 K, Crystal	105.55
168.11 K, Crystal	106.11
170.08 K, Crystal	107.17
171.04 K, Crystal	107.72
173.01 K, Crystal	108.87
173.97 K, Crystal	109.43
175.94 K, Crystal	110.7
176.89 K, Crystal	111.3
178.85 K, Crystal	112.7
179.8 K, Crystal	113.33
181.73 K, Crystal	115.01
182.67 K, Crystal	115.64
184.57 K, Crystal	118.07
185.5 K, Crystal	118.77
187.36 K, Crystal	123.84
188.28 K, Crystal	124.56
198.65 K, Liquid	163.65
199.38 K, Liquid	163.9
200.99 K, Liquid	163.99
201.72 K, Liquid	164.4
203.32 K, Liquid	164.43
204.05 K, Liquid	164.85
205.65 K, Liquid	164.91
206.37 K, Liquid	165.31
207.96 K, Liquid	165.4
208.68 K, Liquid	165.79
210.27 K, Liquid	165.93
210.99 K, Liquid	166.35
212.58 K, Liquid	166.46
213.29 K, Liquid	166.86
214.87 K, Liquid	167.08
215.58 K, Liquid	167.46
217.16 K, Liquid	167.65
217.86 K, Liquid	168.06
219.44 K, Liquid	168.24
220.14 K, Liquid	168.68
221.71 K, Liquid	168.88
222.41 K, Liquid	169.28
223.98 K, Liquid	169.49
224.67 K, Liquid	169.98
226.24 K, Liquid	170.19
226.92 K, Liquid	170.74
228.49 K, Liquid	170.97
229.17 K, Liquid	171.45
230.73 K, Liquid	171.69
231.4 K, Liquid	172.08
232.96 K, Liquid	172.37
233.63 K, Liquid	172.91
235.19 K, Liquid	173.18
235.85 K, Liquid	173.67
237.41 K, Liquid	174
238.06 K, Liquid	174.45
239.61 K, Liquid	174.8
240.27 K, Liquid	175.24
241.81 K, Liquid	175.57
242.46 K, Liquid	176.08
244 K, Liquid	176.53
244.65 K, Liquid	177.02
246.19 K, Liquid	177.41
246.83 K, Liquid	177.9
248.36 K, Liquid	178.37
249 K, Liquid	178.81
250.53 K, Liquid	179.33
251.16 K, Liquid	179.81
252.69 K, Liquid	180.35
253.31 K, Liquid	180.73
254.84 K, Liquid	180.78
255.46 K, Liquid	181.29
256.98 K, Liquid	181.89
257.6 K, Liquid	182.33
259.12 K, Liquid	182.97
259.72 K, Liquid	183.42
